Results reported in patent US20120264928A1, “THERAPEUTIC PHARMACEUTICAL AGENT FOR DISEASES ASSOCIATED WITH DECREASE IN FUNCTION OF GNE PROTEIN, FOOD COMPOSITION, AND FOOD ADDITIVE” (JAPAN HEALTH SCIENCES FOUNDATION, priority 2009, published 2012).

Assays:
DMRV model mice [1] = assay: Muscle contraction test; assay type: in vivo; details: vs placebo group
Procedure: (§1) 20 mg/kg body weight/day of ManNAc (N=6), NeuAc (N=5), or sialyllactose (N=7) dissolved in drinking water was administered to the DMRV model mice between 11- to 15-week old and 56- to 58-week old for 43 to 45 weeks. 40 mg (N=5) or 400 mg/kg body weight/day (N=4) of Ac4ManNAc dissolved in drinking water was administered to the DMRV model mice of the same ages for 43 to 47 weeks. Drinking water free of the pharmaceutical agents was supplied to mice in a placebo group.
(§2) During the administration of the pharmaceutical agent, the measurement of the body weight, the determination of the survival rate, blood collection (0, 25, and 49 days after the start of administration, and thereafter at intervals of 28 days), and a hanging test (0 and 49 days after the start of administration, and thereafter at intervals of 56 days) were performed at regular intervals. Survivors after the administration (ManNAc-treated group: N=5, NeuAc-treated group: N=5, sialyllactose group: N=6) were subjected to a treadmill test. A muscle tissue was then excised and was subjected to a muscle contraction test, the measurement of the amount of NeuAc, and pathological observation.
After pentobarbital sodium (40 mg/kg body weight) was intraperitoneally administered to a mouse for anesthesia, a continuous muscle tissue of the tibialis anterior muscle and the gastrocnemius muscle was isolated. A terminal tendon of the isolated muscle tissue and the tibia were tied with a thread. The ends of the thread were connected at right angles to a tube for hanging a thread (a muscle length controller) and an isotonic transducer (TB-651T (for the gastrocnemius muscle) or TB-653TD-112S (for the tibialis anterior muscle), Nihon Kohden Corp.). The muscle tissue was placed in a lactated Ringer's solution (95% O2, 5% CO2). An electrostimulator (SEN-3301, Nihon Kohden Corp.) and an amplifier (PP-106H, Nihon Kohden Corp.) were used to expand the muscle tissue while providing 400 μs twitch stimulation. A length (L0) at which the maximum contractile force was produced and the contractile force (isometric contractile force: Pt) at that length were measured. While the muscle tissue was held at the length (L0) at which the contractile force was produced, the electrical stimulation was […] to 3 ms. The maximum contractile force (P0) was determined while 10- to 1000-Hz repetitive stimulation was provided 300 to 600 times at intervals of 2 minutes or more. After the measurement, the average cross-sectional area (CSA: muscle weight/L0) of the muscle tissue was calculated.

DMRV model mice [2] = assay: Amount of NeuAc in muscle tissue of treated DMRV model mice; assay type: in vivo; details: vs placebo group
Procedure: DMRV model mice were GNE^(−/−)hGNED176V-Tg described in Japanese Unexamined Patent Application Publication No. 2007-312641. Healthy litters having no GNE gene mutation were used as controls. The mice in the present example freely take water and feed and ingest 14 mg/kg body weight/day of N-acetylneuraminic acid compound on average.
In the case that the sample was cultured cells, the cells were washed with PBS three times, and 400 p. 1 of 50 mM sulfuric acid was added to the cells. The cells were incubated at 80° C. for 60 minutes and were hydrolyzed to release NeuAc and NeuGc. In the case that the sample was a piece of tissue, the tissue was frozen, was pulverized with an air hammer, and was homogenized in a KCl-tris solution. The precipitate was again washed with the KCl-tris solution and was hydrolyzed in 50 mM sulfuric acid at 80° C. for one hour to release NeuAc and NeuGc. 400 μl of 7 mmol 1,2-diamino-4,5-methylenedioxybenzene, dihydrochloride (MDB, Dojindo Laboratories) solution (15.8 mg MDB, 48.8 mg Na2S2O4, and 735 μl 2-mercaptoethanol were dissolved in distilled water so as to prepare a 10-ml solution) was added to the sample containing free NeuAc and NeuGc and was allowed to react at 60° C. for 2.5 hours. The fluorescent derivative thus prepared was analyzed with HPLC (JASCO Corp.) using 0.05 to 5 nmol/μl Neu5Ac and Neu5Gc standards. The amount of protein from the tissue was measured with a Bio-Rad Protein Assay kit (Bio-Rad Laboratories).
as §1, §2

[3] = test system: primary cultured cells of myotubes derived from the DMRV human patients; assay: Amount of NeuAc by HPLC in myotubes from DMRV human patients; assay type: cell-based; details: three days, N=3
Description: DMRV human patients are adult patients that have been diagnosed with DMRV by means of GNE gene mutation screening. (Number of patients: 42, the age of the onset of the disease: 20 to 30, sex: male and female) In accordance with a protocol approved by National Center of Neurology and Psychiatry, after obtaining informed consent, skeletal muscles (biceps brachii muscles and anterior tibial muscles) were collected from these patient volunteers under local anesthesia by means of biopsy.
The skeletal muscle tissues collected from the DMRV human patients or the model mice were lightly washed with PBS or Hank's balanced saline and were treated with 0.25% trypsin for 5 minutes. The tissues were finely cut into several millimeters with ophthalmic scissors, were digested with 0.4% collagenase II/0.25% trypsin at 37° C. for 30 minutes, and were left still to collect supernatant. The precipitate was again treated with the enzyme liquid. After being left still, the precipitate was well suspended in a DMEM-Ham's F-12 culture medium. The tissue suspension was passed through a nylon mesh to remove the tissues. The washings and the supernatant were centrifuged to collect cells. The cells thus collected were plated on a DMEM-Ham's F-12 culture medium at a cell density of 10^6 in a 100-mm plastic dish and were cultured at 37° C. in 5% CO2 for 4 to 7 days.
In the case that the sample was cultured cells, the cells were washed with PBS three times, and 400 p. 1 of 50 mM sulfuric acid was added to the cells. The cells were incubated at 80° C. for 60 minutes and were hydrolyzed to release NeuAc and NeuGc. In the case that the sample was a piece of tissue, the tissue was frozen, was pulverized with an air hammer, and was homogenized in a KCl-tris solution. […] The fluorescent derivative thus prepared was analyzed with HPLC (JASCO Corp.) using 0.05 to 5 nmol/μl Neu5Ac and Neu5Gc standards. The amount of protein from the tissue was measured with a Bio-Rad Protein Assay kit (Bio-Rad Laboratories).
[…] The amount of NeuAc in the cultured cells was measured by the HPLC method described above (N=3).

DMRV model mice [4] = assay: Blood creatine kinase activity; assay type: in vivo; details: 20 mg/kg body weight/day in drinking water; vs placebo group
Procedure: as §1, §2
During the administration of the pharmaceutical agent, blood was collected from a tail of a mouse at regular intervals. The blood was centrifuged to prepare blood serum. Blood creatine activity was measured with a Determiner CPK-L kit (Kyowa Medex Co., Ltd.). The blood serum was electrophoresed using a Titan Gel Isoenzyme kit (Helen Laboratories) to identify creatine kinase. It is known that creatine kinase moves into blood when strenuous exercise or myopathy damages muscle fibers.

[5] = administration of free N-acetylneuraminic acid; cited from earlier work
[6] = in vivo; cited from earlier work
[7] = 20 mg/kg body weight/day in drinking water
[8] = final concentration 0.005, 0.05, 0.5 or 5 mM

SMILES	specific contractile force of the gastrocnemius muscle (DMRV model mice [1]; 40 mg/kg)	Pt per cross-sectional area of the muscle (DMRV model mice [1]; 400 mg/kg)	specific contractile force of the gastrocnemius muscle (DMRV model mice [1]; 400 mg/kg)	amount of NeuAc in the muscle tissue (DMRV model mice [2]; 400 mg/kg)	amount of NeuAc in the cells ([3]; final concentration 0.0002, 0.002, 0.02 or 0.2 mM)	blood creatine kinase activity (DMRV model mice [4])	Pt per cross-sectional area of the muscle (DMRV model mice [1]; [7])	cross-sectional area of the gastrocnemius muscle (DMRV model mice [1]; [7])	specific contractile force of the gastrocnemius muscle (P0 per cross-sectional area of the muscle) (DMRV model mice [1]; [7])	amount of NeuAc in the muscle tissue (DMRV model mice [2]; [7])	amount of NeuAc in the cells [3, 8]	effect of increasing N-acetylneuraminic acid in ganglioside [5]	half-life in the blood of animals [6]
CC(=O)N[C@@H]1C(OC(C)=O)O[C@H](COC(C)=O)[C@@H](OC(C)=O)[C@@H]1OC(C)=O (stereo partly drawn) [Ac4ManNAc, Tetra-O-acetyl-N-acetylmannosamine]	significantly higher	significantly higher	significantly higher	significantly higher	effective in increasing the amount of NeuAc at low concentrations in a manner that depended on its dose								
CC(=O)N[C@@H]1C(O)O[C@H](CO)[C@@H](O)[C@@H]1O (stereo partly drawn) [ManNAc, N-acetylmannosamine, reference compound]						significantly lower	significantly higher	significantly higher	significantly higher	significantly higher	effective in increasing the amount of NeuAc in the cells in a manner that depended on their doses		
CC(=O)N[C@H]1[C@H]([C@H](O)[C@H](O)CO)OC(O)(C(=O)O)C[C@@H]1O (stereo partly drawn) [NeuAc, N-acetylneuraminic acid]						significantly lower	significantly higher	significantly higher	significantly higher	significantly higher	effective in increasing the amount of NeuAc in the cells in a manner that depended on their doses	no particular effect	very short
CC(=O)N[C@H]1[C@H]([C@H](O)[C@H](O)CO)O[C@@](O[C@H]2[C@@H](O)[C@@H](CO)O[C@@H](O[C@H]3[C@H](O)[C@@H](O)C(O)O[C@@H]3CO)[C@@H]2O)(C(=O)O)C[C@@H]1O (stereo partly drawn) [sialyllactose, NeuAcα2-3Galβ1-4Glc]						significantly lower	significantly higher	significantly higher	significantly higher	significantly higher			
